Experimental data published in ChEMBL document CHEMBL5390226, “Synthesis and Staphylococcus aureus biofilm inhibitory activity of indolenine-substituted pyrazole and pyrimido[1,2-b]indazole derivatives” (Bioorg Med Chem, 2023).
In brackets after ≈: the same amount, converted by molar mass. Activity calls are given as the source filed them. No cut-off for these calls is given here.

Tests used:
Staphylococcus aureus [1] = experiment: Antibiofilm activity against methicillin-susceptible Staphylococcus aureus ATCC 29213 assessed as inhibition of biofilm formation incubated for 24 hrs by crystal violet staining based analysis; assay type: functional; settings: dose 1.56-100 µg/ml
Staphylococcus aureus [2] = experiment: Antibiofilm activity against methicillin-resistant Staphylococcus aureus ATCC 33591 assessed as inhibition of biofilm formation incubated for 24 hrs by crystal violet staining based analysis; assay type: functional; settings: dose 1.56-100 µg/ml
Staphylococcus aureus [3] = experiment: Antibiofilm activity against methicillin-resistant Staphylococcus aureus ATCC 33591 assessed as biofilm eradication incubated for 24 hrs by crystal violet staining based analysis; assay type: functional
Staphylococcus aureus [4] = experiment: Antibiofilm activity against methicillin-susceptible Staphylococcus aureus ATCC 29213 assessed as biofilm eradication incubated for 24 hrs by crystal violet staining based analysis; assay type: functional
[5] = Cytotoxicity against human A549 cells assessed as inhibition of cell growth measured after 48 hrs by MTT assay; assay type: toxicity, cell-based
Staphylococcus aureus [6] = experiment: Antibacterial activity against methicillin-susceptible Staphylococcus aureus ATCC 29213 assessed as bacterial growth inhibition incubated for 24 hrs by CLSI based microbroth dilution method; assay type: functional
Staphylococcus aureus [7] = experiment: Antibacterial activity against methicillin-resistant Staphylococcus aureus ATCC 33591 assessed as bacterial growth inhibition incubated for 24 hrs by CLSI based microbroth dilution method; assay type: functional
Staphylococcus aureus [8] = experiment: Antibiofilm activity against methicillin-resistant Staphylococcus aureus ATCC 33591 assessed as disruption of biofilm incubated for 24 hrs by crystal violet staining based inverted microscopic analysis; assay type: functional, organism-based; settings: dose 1.56-12.5 µg/ml
Staphylococcus aureus [9] = experiment: Antibacterial activity against methicillin-resistant Staphylococcus aureus ATCC 33591 assessed as MBC to MIC ratio; assay type: functional
Staphylococcus aureus [10] = experiment: Antibacterial activity against methicillin-resistant Staphylococcus aureus ATCC ATCC 33591 assessed as planktonic growth inhibition at 25 to 50 ug/mL incubated for 24 hrs; assay type: functional, organism-based; settings: dose 25-50 µg/ml
Staphylococcus aureus [11] = experiment: Antibiofilm activity against methicillin-susceptible Staphylococcus aureus ATCC 29213 assessed as disruption of biofilm incubated for 24 hrs by crystal violet staining based inverted microscopic analysis; assay type: functional, organism-based; settings: dose 1.56-12.5 µg/ml
Staphylococcus aureus [12] = experiment: Antibacterial activity against methicillin-susceptible Staphylococcus aureus ATCC 29213 assessed as planktonic growth inhibition at 25 to 50 ug/mL incubated for 24 hrs; assay type: functional, organism-based; settings: dose 25-50 µg/ml

| Compound | MBIC50 (Staphylococcus aureus [1]) | MBIC50 (Staphylococcus aureus [2]) | MBEC50 (Staphylococcus aureus [4]) [µg/mL] | also measured |
| --- | --- | --- | --- | --- |
| CC1(C)C(c2cnn(-c3ccc(C(=O)Nc4ccncc4)cc3)c2)=Nc2ccccc21 | >100 µg/mL |  |  |  |
| CC1(C)C(c2cnn(-c3ccc(C(=O)NCc4ccc(F)cc4)cc3)c2)=Nc2ccc3ccccc3c21 | >100 µg/mL |  |  |  |
| Cc1ccc(NC(=O)c2ccc(-n3cc(C4=Nc5ccccc5C4(C)C)cn3)cc2)cc1 | >100 µg/mL |  |  |  |
| N=C(NCCCCCCNC(=N)NC(=N)Nc1ccc(Cl)cc1)NC(=N)Nc1ccc(Cl)cc1 [CHLORHEXIDINE] | 3.13 µg/mL | <=1.56 ug ml-1 | 12.5 | MBEC50 (Staphylococcus aureus [3]): 3.13 µg/mL |
| CC1(C)C(c2cnn(-c3ccc(C(=O)Nc4ccc(Cl)cc4)cc3)c2)=Nc2ccc3ccccc3c21 | >100 µg/mL |  |  |  |
| CC1(C)C(c2cnn(-c3ccc(C(=O)Nc4ccc(F)cc4)cc3)c2)=Nc2ccc3ccccc3c21 | >100 µg/mL |  |  |  |
| CCOC(=O)c1ccc2c(c1)C(C)(C)C(c1cnc3c4ccc(C(F)(F)F)cc4nn3c1)=N2 | 100 µg/mL |  | >100 | MBEC50 (Staphylococcus aureus [3]): 100 µg/mL |
| CC1(C)C(c2cnn(-c3ccc(C(=O)Nc4ccccc4)cc3)c2)=Nc2ccccc21 | >100 µg/mL |  |  |  |
| CCCCNC(=O)c1ccc(-n2cc(C3=Nc4ccccc4C3(C)C)cn2)cc1 | >100 µg/mL |  |  |  |
| CC1(C)C(c2cnc3c4ccc(Br)cc4nn3c2)=Nc2c1ccc1ccccc21 | >100 µg/mL | 50 µg/mL | >100 |  |
| COc1cccc2nn3cc(C4=Nc5c(ccc6ccccc56)C4(C)C)cnc3c12 | 12.5 µg/mL |  | >100 |  |
| CC1(C)C(c2cnc3c4ccc(Br)cc4nn3c2)=Nc2ccccc21 | >100 µg/mL | 100 µg/mL | >100 |  |
| CC1(C)C(c2cnn(-c3ccc(C(=O)Nc4ccc(Cl)cc4)cc3)c2)=Nc2ccccc21 | >100 µg/mL |  |  |  |
| Oc1cc(Cl)ccc1Oc1ccc(Cl)cc1Cl [TRICLOSAN] | <=1.56 ug ml-1 | <=1.56 ug ml-1 | 3.13 | MBEC50 (Staphylococcus aureus [3]): 6.25 µg/mL |
| CCOC(=O)c1ccc2c(c1)C(C)(C)C(c1cnc3c4ccccc4nn3c1)=N2 | >100 µg/mL | 100 µg/mL | >100 |  |
| COc1cccc2nn3cc(C4=Nc5ccccc5C4(C)C)cnc3c12 | 50 µg/mL | >100 µg/mL | >100 |  |
| Cc1ccccc1NC(=O)c1ccc(-n2cc(C3=Nc4ccccc4C3(C)C)cn2)cc1 | >100 µg/mL |  |  |  |
| COc1cccc2nn3cc(C4=Nc5ccc6ccccc6c5C4(C)C)cnc3c12 | >100 µg/mL |  | >100 | MBEC50 (Staphylococcus aureus [3]): 100 µg/mL |
| CC1(C)C(c2cnc3c4ccc(Br)cc4nn3c2)=Nc2ccc3ccccc3c21 | >100 µg/mL |  | >100 |  |
| CC1(C)C(c2cnc3c4ccccc4nn3c2)=Nc2ccc3ccccc3c21 | >100 µg/mL | 50 µg/mL | >100 |  |
| CC1(C)C(c2cnn(-c3ccc(C(=O)NCCc4ccccc4)cc3)c2)=Nc2ccccc21 | >100 µg/mL |  |  |  |
| CC1(C)C(c2cnn(-c3ccccc3)c2)=Nc2ccc(C(=O)O)cc21 | 12.5 µg/mL | <=1.56 ug ml-1 | >100 | MBEC50 (Staphylococcus aureus [3]): 25 µg/mL; IC50 at 48 h [5]: > 100 mg/L |
| CC1(C)C(c2cnn(-c3ccc(C(=O)NCc4cccnc4)cc3)c2)=Nc2ccccc21 | >100 µg/mL |  |  |  |
| CC1(C)C(c2cnn(-c3ccc(C(=O)NCCc4ccccc4)cc3)c2)=Nc2ccc3ccccc3c21 | >100 µg/mL |  |  |  |

| Compound | MBIC50 (Staphylococcus aureus [1]) | MBIC50 (Staphylococcus aureus [2]) | MBEC50 (Staphylococcus aureus [4]) [µg/mL] | also measured |
| --- | --- | --- | --- | --- |
| CC1(C)C(c2cnc3c4ccccc4nn3c2)=Nc2ccccc21 | >100 µg/mL | 100 µg/mL | 100 | MBEC50 (Staphylococcus aureus [3]): >100 µg/mL |
| CN(C)c1ccccc1NC(=O)c1ccc(-n2cc(C3=Nc4ccccc4C3(C)C)cn2)cc1 | >100 µg/mL |  |  |  |
| CC1(C)C(c2cnn(-c3ccc(C(=O)O)cc3)c2)=Nc2ccc(Cl)cc21 | 6.25 µg/mL |  | 12.5 | MBEC50 (Staphylococcus aureus [3]): 50 µg/mL; IC50 at 48 h [5]: > 100 mg/L |
| CC1(C)C(c2cnn(-c3ccc(C(=O)NC4CCCCC4)cc3)c2)=Nc2ccccc21 | >100 µg/mL |  |  |  |
| Cc1ccc(CNC(=O)c2ccc(-n3cc(C4=Nc5ccccc5C4(C)C)cn3)cc2)cc1 | >100 µg/mL |  |  |  |
| COc1ccc(NC(=O)c2ccc(-n3cc(C4=Nc5ccccc5C4(C)C)cn3)cc2)cc1 | >100 µg/mL |  |  |  |
| CC1(C)C(c2cnn(-c3ccc(C(=O)NCc4ccc(F)cc4)cc3)c2)=Nc2ccccc21 | >100 µg/mL |  |  |  |
| CC1(C)C(c2cnn(-c3ccc(C(=O)O)cc3)c2)=Nc2ccc3ccccc3c21 | <=1.56 ug ml-1 | 3.13 µg/mL | 12.5 | MIC (Staphylococcus aureus [6]): 25 mg/L (≈ 65.5 µM); inhibition (Staphylococcus aureus [2]): Dose-Dependent Effect; MIC (Staphylococcus aureus [7]): 25 mg/L (≈ 65.5 µM); Activity (Staphylococcus aureus [8]): Dose-Dependent Effect; Ratio (Staphylococcus aureus [9]): >4; inhibition (Staphylococcus aureus [10]): Active; MBEC50 (Staphylococcus aureus [3]): 6.25 µg/mL; Activity (Staphylococcus aureus [11]): Dose-Dependent Effect; IC50 at 48 h [5]: > 100 mg/L; inhibition (Staphylococcus aureus [12]): Active; inhibition (Staphylococcus aureus [1]): Dose-Dependent Effect |
| COc1ccc2c(c1)C(C)(C)C(c1cnc3c4ccccc4nn3c1)=N2 | >100 µg/mL | 50 µg/mL | >100 |  |
| CC1(C)C(c2cnc3c4ccc(C(F)(F)F)cc4nn3c2)=Nc2ccc3ccccc3c21 | 50 µg/mL |  | >100 |  |
| CC1(C)C(c2cnc3c4ccc(C(F)(F)F)cc4nn3c2)=Nc2ccccc21 | 100 µg/mL | 12.5 µg/mL | >100 |  |
| CC1(C)C(c2cnn(-c3ccc(C(=O)Nc4ccncc4)cc3)c2)=Nc2ccc3ccccc3c21 | >100 µg/mL |  |  |  |
| COc1ccc2c(c1)C(C)(C)C(c1cnn(-c3ccc(C(=O)O)cc3)c1)=N2 | 12.5 µg/mL | 100 µg/mL | >100 |  |
| COc1ccc2c(c1)C(C)(C)C(c1cnc3c4c(OC)cccc4nn3c1)=N2 | >100 µg/mL | 25 µg/mL | >100 |  |
| COc1ccc2c(c1)C(C)(C)C(c1cnc3c4ccc(C(F)(F)F)cc4nn3c1)=N2 | 100 µg/mL |  | >100 | MBEC50 (Staphylococcus aureus [3]): 100 µg/mL |
| CC1(C)C(c2cnn(-c3ccc(C(=O)O)cc3)c2)=Nc2ccccc21 | 6.25 µg/mL | 50 µg/mL | >100 |  |
| CC1(C)C(c2cnc3c4ccc(C(F)(F)F)cc4nn3c2)=Nc2c1ccc1ccccc21 | >100 µg/mL | 100 µg/mL | >100 |  |
| CCOC(=O)c1ccc2c(c1)C(C)(C)C(c1cnc3c4c(OC)cccc4nn3c1)=N2 | >100 µg/mL | 12.5 µg/mL | >100 |  |
| CCOC(=O)c1ccc2c(c1)C(C)(C)C(c1cnc3c4ccc(Br)cc4nn3c1)=N2 | >100 µg/mL |  | >100 |  |
| COc1ccc2c(c1)C(C)(C)C(c1cnc3c4ccc(Br)cc4nn3c1)=N2 | >100 µg/mL |  | >100 |  |
| CC1(C)C(c2cnn(-c3ccc(C(=O)NCc4ccccc4)cc3)c2)=Nc2ccccc21 | >100 µg/mL |  |  |  |
| CC1(C)C(c2cnn(-c3ccc(C(=O)Nc4ccc(F)cc4)cc3)c2)=Nc2ccccc21 | >100 µg/mL |  |  |  |
| CC1(C)C(c2cnc3c4ccccc4nn3c2)=Nc2c1ccc1ccccc21 | 25 µg/mL | 6.25 µg/mL | >100 |  |
